According to patent US10351530B2, “Arylcyclohexyl pyrazoles as NRF2 regulators” (GlaxoSmithKline Intellectual Property Development Limited, priority 2015, dated 2019):

What was measured:
[1] = system: NQO1 specific enzyme activity in BEAS-2B cells; experiment: BEAS-2B NQO1 MTT Assay; format: cell-based; conditions: Homo sapiens, BEAS-2B, 48 h, NQO1 specific activity induction
Source text: NAD(P)H:quinone oxidoreductase 1 (NQO1), also called DT diaphorase, is a homodimeric FAD-containing enzyme that catalyzes obligatory NAD(P)H-dependent two-electron reductions of quinones and protects cells against the toxic and neoplastic effects of free radicals and reactive oxygen species arising from one-electron reductions. The transcription of NQO1 is finely regulated by NRF2, and thus NQO1 activity is a good marker for NRF2 activation. On day one, frozen BEAS-2B cells (ATCC) are thawed in a water bath, counted, and re-suspended at a concentration of 250,000 cells/mL. Fifty microliters of cells are plated in 384 well black clear-bottomed plates. Plates are incubated at 37° C., 5% CO2 overnight. On day two, plates are centrifuged and 50 nL of compound or controls are added to the cells. Plates are then incubated at 37° C., 5% CO2 for 48 hours. On day four, medium is aspirated from the plate and crude cell lysates are made by adding 13 uL of 1× Cell Signaling Technologies lysis buffer with 1 Complete, Mini, EDTA-free Protease Inhibitor Tablet (Roche) for each 10 mL of lysis buffer. After lysis plates are incubated for 20 minutes at room temperature. Two microliters of lysate are removed for use in Cell Titer Glo assay (Promega) and MTT cocktail is prepared (Prochaska et. al. 1998) for measurement of NQO1 activity. Fifty microliters of MTT cocktail is added to each well, plate is centrifuged, and analyzed on an Envision plate reader (Perkin Elmer) using Absorbance 570 nm label for 30 minutes. Product formation is measured kinetically and the pEC50 of NQO1 specific activity induction is calculated by plotting the change in absorbance (Delta OD/min) versus the log of compound concentration followed by 3-parameter fitting.

NRF2/Keap1 = target: T1, NRF2/Keap1 (Homo sapiens, UniProt Q14145); experiment: NRF2-Keap1 TR-FRET Assay (full length NRF2 and full length Keap1); format: binding; conditions: 25 nM Keap1-FlagHis, 50 nM biotin-NRF2 added
T1 construct: full length NRF2 protein and full length Keap1 protein (Keap1 exists a dimer) are used
Source text: In the NRF2-Keap1 TR-FRET (time-resolved fluorescence resonance energy transfer) assay, full length NRF2 protein and full length Keap1 protein (Keap1 exists a dimer) are used. The assay detects the ability of compound to displace the binding of FlagHis-tagged Keap1 with biotinylated, Avi-tagged NRF2 protein. Biotin-NRF2 binds to streptavidin-europium (a component of the detection mix) and Keap1-FlagHis is recognized by anti-Flag APC (allophycocyanin) antibody (also a component of the detection mix). If binding occurs between the two proteins, there will be an energy transfer from the Eu+3 (donor) at 615 nm to the APC (acceptor) at 665 nm. A potential Keap1 inhibitor will cause a reduction in the TR-FRET signal by interfering with the binding of Keap1 to NRF2.
One hundred nanoliters of 100× compound dose response curves (serial 3-fold dilutions) in DMSO are stamped using an Echo liquid handling system (Labcyte) into 384-well, low volume, black assay plates (Greiner, #784076), with DMSO in columns 6 and 18. The top concentration of compound is located in columns 1 and 13. All reagents are diluted in assay buffer (50 mM Tris, pH 8.0, 5 mM MgCl2, 100 mM NaCl, 0.005% BSA, 1 mM DTT, and 2 mM CHAPS). The BSA, DTT, and CHAPS are added to the assay buffer on the day of assay. Using a Multidrop Combi (Thermo Electron Corporation) equipped with a metal tip dispenser, 5 ul of 25 nM Keap1-FlagHis protein is added to all wells of the compound plate, with the exception of the wells in column 18. Wells in column 18 receive 5 ul of assay buffer instead. Plates are centrifuged at 500 rpm for 1 minute, covered with a plate lid, and incubated at 37° C. for 2.25 hours. Plates are then removed from the incubator and allowed to cool to RT for 15 minutes. Five microliters of 50 nM biotin-NRF2 protein is then added to all wells of the plates and the plates are spun at 500 rpm for 1 minute, followed by incubating at 4° C. for 1.25 hours. The plates are then allowed to warm to RT for 15 minutes, followed by the addition of 10 ul of detection mix (1 nM Streptavidin Eu+ W1024 and 5 ug/ml mouse anti-DYKDDDDK IgG conjugated to SureLight APC antibody; both from Columbia Biosciences) to all wells. Plates are spun at 500 rpm for 1 minute, incubated for 1 hour at RT, and read on an Envision plate reader using a 320 nm excitation filter and 615 nm and 665 nm emission filters. Compound response (% inhibition) and potency (pIC50) are calculated based on the ratio of the two emissions (665 nm/615 nm) and then the transformed data is normalized against controls in the assay (control 1=1% DMSO in the presence of NRF2 and Keap1 protein and control 2=1% DMSO in the absence of protein). Data analysis is handled using the software package Abase XE (Surrey, United Kingdom). The % inhibition values are calculated from the ratio (transformed) data by the equation: 100−(100*(compound response-average control 2)/(average control 1−average control 2)).
For calculation of pIC50s, Abase XE uses a four parameter equation.

Keap1/NRF2 = target: T2, Keap1/NRF2 (Homo sapiens, UniProt Q14145); experiment: NRF2-Keap1 FP Assay (Kelch domain (321-609) of Keap1, TAMRA-labeled NRF2 ETGE peptide); format: binding; conditions: Keap1 (321-609) 20 nM, Tamra labeled peptide 8 nM
T2 construct: Keap1 (321-609) is diluted to 40 nM (2×) in 1× assay buffer
Source text: One model for the NRF2-Keap1 interaction is through two binding sites in the Neh2 domain on NRF2. The two sites are referred to as the DLG binding motif (latch domain, uM affinity) and the ETGE binding motif (hinge domain, nM affinity). The Keap1 protein consists of an N-terminal region (NTR), a broad complex, tramtrack, and brick a′ brac domain (BTB), an intervening region (IVR), a double glycine repeat domain (DGR or Kelch), and a C-terminal region. The DLG and ETGE motifs of NRF2's Neh2 domain bind to the Kelch domain of Keap1 at different affinities. In the Keap1 Kelch fluorescence polarization (FP) assay, a TAMRA-labeled 16 mer peptide (AFFAQLQLDEETGEFL) containing the ETGE motif of NRF2 and the Kelch domain (321-609) of Keap1 is used. The assay determines if a compound interferes with the binding between Keap1 […] and the TAMRA-labeled peptide. Binding of TAMRA-labeled NRF2 peptide to Keap1 (321-609) results in a high FP signal. If a compound interferes with the binding between the peptide and the protein, it will cause the assay signal to decrease. Thus, assay signal is inversely proportional to binding inhibition.
100 nl of 100× compound dose response curves (serial 3-fold dilutions) in DMSO are stamped using an Echo liquid handling system (Labcyte) into 384-well low volume black assay plates (Greiner, #784076), with DMSO in columns 6 and 18. The top concentration of compound is located in columns 1 and 13. Keap1 (321-609) is diluted to 40 nM (2×) in 1× assay buffer (50 mM Tris, pH 8.0, 100 mM NaCl, 5 mM MgCl2, 1 mM DTT, 2 mM CHAPS, and 0.005% BSA) and 5 ul is added using a Multidrop Combi (Thermo Electron Corporation) equipped with a metal tip dispenser to all wells of the compound plate, except column 18. Column 18 receives only 5 ul of assay buffer. Immediately, 5 uL of 16 nM (2×) of Tamra labeled peptide (AFFAQLQLDEETGEFL, 21st Century Biochemicals) is added to all wells of the plate. The plates are spun at 500 rpm for 1 min, incubated for 1 hr at room temperature, and read on an Analyst GT (Molecular Devices) equipped with excitation (530/25 nm) and emission (580/10 nm) filters designed for Tamra probes. A 561 nm dichroic mirror is also used in the Analyst. The final assay concentrations of Keap1 (321-609) and Tamra labeled peptide are 20 nM and 8 nM, respectively. Fluorescence measurements, represented as mP, are used in the transformation of the data. Compound activity is calculated based on percent inhibition, normalized against controls in the assay (Control 1 contains the Tamra peptide and Keap1 (321-609) together (0% response) and control 2 contains the Tamra peptide alone (100% response)). Data analysis is handled using the software package Abase XE (Surrey, United Kingdom. The % inhibition values are calculated by the equation: 100−(100*((compound response-average control 2)/(average control 1−average control 2))). For calculation of pIC50s, Abase XE uses a four parameter equation.

T1 sequence (Q14145 whole entry): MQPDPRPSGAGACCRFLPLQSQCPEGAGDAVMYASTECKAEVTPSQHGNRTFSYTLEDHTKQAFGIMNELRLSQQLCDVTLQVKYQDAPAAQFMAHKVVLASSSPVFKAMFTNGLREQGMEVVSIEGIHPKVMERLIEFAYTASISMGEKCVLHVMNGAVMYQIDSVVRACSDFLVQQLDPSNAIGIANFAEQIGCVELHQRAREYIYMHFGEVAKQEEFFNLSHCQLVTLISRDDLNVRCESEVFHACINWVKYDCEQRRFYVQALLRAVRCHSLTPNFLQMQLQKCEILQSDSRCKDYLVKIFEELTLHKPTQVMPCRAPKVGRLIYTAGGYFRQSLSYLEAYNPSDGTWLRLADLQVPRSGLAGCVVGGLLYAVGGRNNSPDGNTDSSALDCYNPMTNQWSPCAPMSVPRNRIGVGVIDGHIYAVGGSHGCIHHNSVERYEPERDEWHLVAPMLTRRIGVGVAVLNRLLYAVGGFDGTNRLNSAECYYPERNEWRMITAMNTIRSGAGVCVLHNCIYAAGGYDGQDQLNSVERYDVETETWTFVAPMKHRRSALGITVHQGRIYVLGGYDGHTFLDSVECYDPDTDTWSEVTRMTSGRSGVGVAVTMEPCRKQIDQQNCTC
T2 sequence (Q14145 321-609): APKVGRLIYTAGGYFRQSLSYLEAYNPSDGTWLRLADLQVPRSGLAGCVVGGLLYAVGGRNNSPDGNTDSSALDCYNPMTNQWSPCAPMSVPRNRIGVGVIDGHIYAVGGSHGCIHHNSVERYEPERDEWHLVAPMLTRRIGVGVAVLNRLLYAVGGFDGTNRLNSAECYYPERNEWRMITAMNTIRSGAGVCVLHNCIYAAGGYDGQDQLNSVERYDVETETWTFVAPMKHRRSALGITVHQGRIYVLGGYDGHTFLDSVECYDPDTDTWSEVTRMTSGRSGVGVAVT

Compound	IC50 (NRF2/Keap1)	IC50 (Keap1/NRF2)	EC50 [1]
O=C(O)c1cnn(-c2cccc(C3CCCC(n4ncc5c4CCCC5)C3)c2)c1C1CC1 (racemic) [Example 2, 5-Cyclopropyl-1-{3-[3-(4,5,6,7-tetrahydro-1H-indazol-1-yl)cyclohexyl]phenyl}-1H-pyrazole-4-carboxylic Acid]	1000 to 10000 nM	100 to 1000 nM	1000 to 10000 nM
O=C(O)c1cnn(-c2cccc([C@@H]3CCC[C@H](C(=O)N4CCCC5(CCCC5)C4)C3)c2)c1C1CC1 (racemic) [Example 4, 1-[3-(3-{7-Azaspiro[4.5]decane-7-carbonyl}cyclohexyl)phenyl]-5-cyclopropyl-1H-pyrazole-4-carboxylic Acid]	1000 to 10000 nM	100 to 1000 nM	1000 to 10000 nM
CC1(C)CCCN1C(=O)C1CCCC(c2cccc(-n3ncc(C(=O)O)c3C3CC3)c2)C1 (racemic) [Example 6, 5-cyclopropyl-1-{3-[3-(2,2-dimethylpyrrolidine-1-carbonyl)cyclohexyl]phenyl}-1H-pyrazole-4-carboxylic Acid]	1000 to 10000 nM	100 to 1000 nM	1000 to 10000 nM
O=C(O)c1cnn(-c2cccc(C3CCCC(C(=O)N4CCCC4C4CCC4)C3)c2)c1C1CC1 (racemic) [Example 13, 1-{3-[3-(2-cyclobutylpyrrolidine-1-carbonyl)cyclohexyl]phenyl}-5-cyclopropyl-1H-pyrazole-4-carboxylic Acid]	100 to 1000 nM	10 to 100 nM	1000 to 10000 nM
CC1CCc2cnn([C@@H]3CCC[C@H](c4cccc(-n5ncc(C(=O)O)c5C5CC5)c4)C3)c21 (mixture of isomers) [Example 14, 5-Cyclopropyl-1-{3-[(cis)-3-(6-methyl-5,6-dihydro-4H-cyclopentapyrazol-1-yl)-cyclohexyl]-phenyl}-1H-pyrazole-4-carboxylic Acid]	1000 to 10000 nM	100 to 1000 nM	1000 to 10000 nM
CCCC1CCc2cnn([C@@H]3CCC[C@H](c4cccc(-n5ncc(C(=O)O)c5C5CC5)c4)C3)c21 (mixture of isomers) [Example 16, 5-Cyclopropyl-1-[3-(3-{6-propyl-1H,4H,5H,6H-cyclopenta[c]pyrazol-1-yl}cyclohexyl)phenyl]-1H-pyrazole-4-carboxylic Acid]	1000 to 10000 nM	100 to 1000 nM	1000 to 10000 nM

Second part, led by results:

IC50 (NRF2/Keap1)	IC50 (Keap1/NRF2)	Compound	EC50 [1]
10000 to 100000 nM	100 to 1000 nM	O=C(O)c1cnn(-c2cccc(C3CCC(n4ncc5c4CCC5)C3)c2)c1C1CC1 (mixture of isomers) [Example 10, 1-[3-(3-{1H,4H,5H,6H-cyclopenta[c]pyrazol-1-yl}cyclopentyl)phenyl]-5-cyclopropyl-1H-pyrazole-4-carboxylic Acid]	1000 to 10000 nM
1000 to 10000 nM	100 to 1000 nM	CN(C)C(=O)[C@H]1CCC[C@@H](c2cccc(-n3ncc(C(=O)O)c3C3CC3)c2)C1 (racemic) [Example 1, 5-Cyclopropyl-1-{3-[3-(dimethylcarbamoyl)cyclohexyl]phenyl}-1H-pyrazole-4-carboxylic Acid]	1000 to 10000 nM
1000 to 10000 nM	100 to 1000 nM	O=C(O)c1cnn(-c2cccc([C@H]3CCC[C@@H](C(=O)N4CCCCC4)C3)c2)c1C1CC1 (racemic) [Example 3, 5-Cyclopropyl-1-{3-[3-(piperidine-1-carbonyl)cyclohexyl]phenyl}-1H-pyrazole-4-carboxylic Acid]	1000 to 10000 nM
1000 to 10000 nM	100 to 1000 nM	CCCC1CCCCN1C(=O)[C@H]1CCC[C@@H](c2cccc(-n3ncc(C(=O)O)c3C3CC3)c2)C1 (mixture of isomers) [Example 5, 5-Cyclopropyl-1-{3-[3-(2-propylpiperidine-1-carbonyl)cyclohexyl]phenyl}-1H-pyrazole-4-carboxylic Acid]	1000 to 10000 nM
1000 to 10000 nM	100 to 1000 nM	O=C(O)c1cnn(-c2cccc(C3CCCC(C(=O)N4CCCC45CCCCC5)C3)c2)c1C1CC1 (racemic) [Example 7, 1-[3-(3-{1-Azaspiro[4.5]decane-1-carbonyl}cyclohexyl)phenyl]-5-cyclopropyl-1H-pyrazole-4-carboxylic Acid]	1000 to 10000 nM
1000 to 10000 nM	100 to 1000 nM	O=C(O)c1cnn(-c2cccc(C3CCCC(n4ncc5c4CCCCC5)C3)c2)c1C1CC1 (racemic) [Example 9, 1-[3-(3-{1H,4H,5H,6H,7H,8H-cyclohepta[c]pyrazol-1-yl}cyclohexyl)phenyl]-5-cyclopropyl-1H-pyrazole-4-carboxylic Acid]	1000 to 10000 nM
